We go through two compounds from article PMC8861115, “Characterization and structural analyses of a novel glycosyltransferase acting on the β-1,2-glucosidic linkages” (The Journal of Biological Chemistry, 2022).

By Km is commonly meant the concentration of substrate that gives half-maximal velocity.

Assay [1] has as its target T1, IaSGT (IALB_1185) (Ignavibacterium album, UniProt I0AIT9).
T1 construct: full length (no N-terminal signal peptide), his6-tag fusion from pET30a(+) NdeI/XhoI, E. coli BL21(DE3); homodimer
T1 sequence (I0AIT9 1-716): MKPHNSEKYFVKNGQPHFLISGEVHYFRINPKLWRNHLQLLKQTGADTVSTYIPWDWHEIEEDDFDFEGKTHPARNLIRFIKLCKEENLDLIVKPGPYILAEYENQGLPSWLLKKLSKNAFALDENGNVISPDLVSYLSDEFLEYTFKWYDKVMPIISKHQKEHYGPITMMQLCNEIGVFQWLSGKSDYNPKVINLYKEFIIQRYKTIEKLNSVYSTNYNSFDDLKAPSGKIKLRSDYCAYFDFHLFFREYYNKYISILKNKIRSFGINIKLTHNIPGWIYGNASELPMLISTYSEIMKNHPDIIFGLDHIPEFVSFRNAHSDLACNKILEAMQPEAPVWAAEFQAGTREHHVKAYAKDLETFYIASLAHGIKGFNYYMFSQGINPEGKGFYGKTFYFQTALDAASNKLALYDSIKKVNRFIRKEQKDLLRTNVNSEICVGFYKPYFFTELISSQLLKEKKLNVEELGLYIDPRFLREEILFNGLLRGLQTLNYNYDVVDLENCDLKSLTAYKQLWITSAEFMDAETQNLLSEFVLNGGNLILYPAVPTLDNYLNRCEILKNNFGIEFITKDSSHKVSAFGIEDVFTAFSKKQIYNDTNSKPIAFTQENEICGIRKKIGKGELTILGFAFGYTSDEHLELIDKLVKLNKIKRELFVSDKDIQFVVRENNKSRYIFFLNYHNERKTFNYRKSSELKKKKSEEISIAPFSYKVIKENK
Description: hexokinase/G6PDH thio-NAD+ coupled glucose release. In kind it is biochemical. The note with it: acceptor; donor Sop2 fixed 1 mM; pH 5.0, 37 °C. The source says: hexokinase/G6PDH thio-NAD+ coupled glucose release on IaSGT (IALB_1185)

Assay [2] concerns the target T2, IaSGT (IALB_1185) (Ignavibacterium album, UniProt I0AIT9, E343G).
T2 construct: full length (no N-terminal signal peptide), his6-tag fusion from pET30a(+) NdeI/XhoI, E. coli BL21(DE3); homodimer
T2 sequence (I0AIT9 1-716 E343G): T1 sequence (I0AIT9 1-716) with E343G
Description: X-ray crystal structure of complex. In kind it is binding. Particulars: subsites -1 and +1, subunit A only.

Molecules are shown by their SMILES. Where a chain is given by its changes, count along the chain named.

On to `N#C[C@H](O[C@@H]1O[C@H](CO[C@@H]2O[C@H](CO)[C@@H](O)[C@H](O)[C@H]2O)[C@@H](O)[C@H](O)[C@H]1O)c1ccccc1` [Amygdalin], for which the Km on IaSGT (IALB_1185) [1] amounted to 150 ± 20 µM.

Take `OC[C@H]1NC[C@H](O)[C@@H](O)[C@@H]1O` [DNJ, 1-deoxynojirimycin]: the “X-ray crystal structure of complex” value on IaSGT (IALB_1185) [2] is given as “The electron densities of DNJ molecules were observed only in subunit A in the E343G mutant”.
